According to PubChem BioAssay AID2305 (GlaxoSmithKline (GSK), 2010):

system: P. falciparum 3D7 growth, pLDH absorbance; test: P. falciparum 3D7 growth inhibition, dose response, strain 3D7 (AID 2305)

SMILES	IC50 [nM]
O=C(Nc1cccc(CN2CCCN(Cc3ccc4c(c3)OCO4)CC2)c1)c1ccc(Cl)c(Cl)c1	890
CCN(CCCN1CCCCC1)c1cc(C)nc(Nc2cccc(C(F)(F)F)c2)n1	290
CCOc1cc2ncnc(Nc3ccc(OCc4c(F)cccc4F)c(OC)c3)c2cc1OCC	820
COc1ccc(-c2onc(C(F)(F)F)c2-c2cc3ccccc3o2)c(O)c1	860
O=C(COc1ccc(F)cc1)NC1CCN(c2ccnc3cc(Cl)ccc23)C1 (stereo not drawn)	270
CO/C(=C\C=C\c1cc2cc(Cl)c(Cl)cc2[nH]1)C(=O)NCCCN1CCC(c2ccccc2)CC1	910
O=C(Nc1ccc2c(c1)CCC2)c1nc(N2CCN(c3ccncc3)CC2)ccc1Cl	1380
COc1cc2ccccc2c(OC)c1CNCCCCCCNCc1c(OC)cc2ccccc2c1OC	990
N#Cc1ccc(NC(=NCc2cccnc2)Nc2ccc(-c3ccccc3)cc2)c(O)c1	810
CC(=O)N1N=C(c2ccccc2)Sc2c1nc(-c1ccc(Cl)cc1)n2C(C)=O	990
CN(C(=O)c1cc2c(-c3cncnc3)cccc2[nH]1)c1ccccc1	630
O=c1c2c([nH]c3cc(Cl)ccc13)CCCC2	810
COc1ccc(CN2CCCN(Cc3ccc(C(=O)Nc4ccc(Cl)cc4)cc3)CC2)cc1	920
CS(=O)(=O)c1cccc(-c2cnc3[nH]cc(-c4cccc(CCN)c4)c3c2)c1	1560
Fc1cccc(CNc2ncc(-c3ccsc3)c(-c3nccs3)n2)c1	240
Cc1cc(NN=CC=Cc2ccccc2)c2ccc(F)cc2n1	590
CCc1c[nH]c2c(N3CCCC3=O)cc(C(=O)N[C@@H](Cc3ccccc3)[C@H](O)CNC3CCCCC3)cc12	100
CCc1cc(C(=O)c2cccc(C)c2)c(NC(=O)CN2CCN(C(=O)c3ccco3)CC2)s1	450
Cc1ccccc1C1CCN(c2ccc(C(=O)NC3CC3)cn2)CC1	850
COc1ccccc1CCNc1ncnc2c1[nH]c1ccc(F)cc12	840
C[C@@H](CC1CCCCC1)NCc1cccc(NS(=O)(=O)c2ccc(O)c(-c3ccno3)c2)c1	380
O=C(CC(c1ccccc1)c1ccccc1O)N1CCOCC1 (stereo not drawn)	1520
N#Cc1ccc(-c2ccc(OCC(O)CN3CCCN(C(=O)C(c4ccc5c(c4)OCO5)N4CCN(C/C=C/c5ccccc5)CC4)CC3)cc2)cc1 (stereo not drawn)	650
CC(CN(C)C)C(=O)Nc1ccc(-c2ccc(-c3nc4ccccc4[nH]3)cc2)cc1 (stereo not drawn)	740
CN(C(=O)/C=C/c1cc(C(F)(F)F)ccc1F)C1CCN(CCCCCNC(=O)/C=C/c2ccc(Cl)c(Cl)c2)CC1	290

SMILES	IC50 [nM]
CC(C)(C)c1ccc(CN2CCC(NC(=O)c3cc(-c4cccc(C(F)(F)F)c4)cs3)C2)cc1 (stereo not drawn)	810
Cc1cccc2[nH]c(-c3ccc(-c4ccc(CN5CCN(C6CCN(C)CC6)CC5)cc4)s3)nc12	140
FC(F)(F)c1cnc(Sc2nnc(-c3ccco3)o2)c(Cl)c1	790
COc1ccc(N2C(=O)C3C(C2=O)C2(C)c4ccccc4C3(C)c3ccccc32)c([N+](=O)[O-])c1 (stereo not drawn)	720
NC(N)=NC(=O)Nc1ccc(Cl)c(C(F)(F)F)c1	590
CCCCCCN1CCCN(Cc2ccc(C(=O)Nc3cccc(CC)c3)cc2)CC1	670
Cc1cccc(-c2nn(-c3ccccc3)c3[nH]c(=O)c(CNC4CCCC4)cc23)c1	760
COc1ccc(Nc2nccc(NCCNC(=O)Nc3cc(C)ccc3C)n2)cc1	1050
Cc1cccc(Oc2cccc3[nH]nc(N)c23)c1	1040
O=[N+]([O-])c1cccc(Nc2nccc(-c3cnn4ncccc34)n2)c1	180
O=C(Nc1ccccc1C(F)(F)F)Nc1nn(Cc2c(F)cccc2Cl)cc1Br	340
O=[N+]([O-])c1cnc(Nc2ccccc2O)nc1Nc1ccccc1O	900
Fc1ccc2nc(-c3ccc(-c4ccc(CN5CCN(c6cnccn6)CC5)cc4)s3)[nH]c2c1	620
COc1cc(NC(=O)c2sc(-c3ccc(Cl)cc3)cc2NC(=O)c2cccc(N(C)C)c2)ccc1OCCN1CCCC1	710
CCNC(=O)c1ccc2c(c1)c(C)c(C)n2Cc1ccc(F)cc1	770
CCN(c1ccccc1)S(=O)(=O)c1ccc(OC)c(NC(=O)c2cccc(C(F)(F)F)c2)c1	880
Oc1ccc2c(c1NCC1CCCCC1)CCCC2	510
COc1ccc2nccc([C@@H](O)CN3CCC(NCCOc4ccccc4C#N)CC3)c2c1	400
CCOc1cc(C=NNc2nc3ccccc3[nH]2)ccc1OCc1ccc([N+](=O)[O-])cc1	1000
CCOc1ccc2nc(C)cc(NN=Cc3cccc([N+](=O)[O-])c3)c2c1	660
Cc1cc2c(cc1C(F)(F)F)N(C(=O)Nc1cc(C(=O)NCCN(C)C)cc(C(F)(F)F)c1)CC2	730
COc1ccc(-c2ccc(NC(=O)c3cccc(Cl)c3)cc2)cc1CNC(C)C	470
Cc1ccc2c(OCCN3CCC(Cc4cc5c(cc4F)OCC(=O)N5)CC3)cc(F)cc2n1	630
Fc1ccc2nc(-c3ccc(-c4cccc(CN5CCC(CCN6CCCCC6)CC5)c4)cc3)[nH]c2c1	140
O=C(NCCCc1ccccc1)c1csc(C2CCCN(C(=O)c3ccc(O)c(-c4cccc5ccccc45)c3)C2)n1 (stereo not drawn)	970

SMILES	IC50 [nM]
O=C(NCCCCN1CCC(c2c[nH]c3ccccc23)CC1)c1ccc(-c2ccc(C(F)(F)F)cc2)cc1	800
COc1ccc2ccc(F)c(CC(=O)N3CCOC(CNCc4cccc(-c5ccsc5)n4)C3)c2n1 (stereo not drawn)	1170
Cc1ccccc1C1CCN(C2CCC(NC(=O)/C=C/c3ccc(C(F)(F)F)cc3F)CC2)CC1 (stereo not drawn)	900
Cc1c(C)n(C2CCCCC2)c2ncnc(OC3CCN(CC(=O)NC4CC4)CC3)c12	1240
O=C(/C=C/c1ccc(Cl)c(Cl)c1)NCCC(CN1CCC(c2c[nH]c3ccccc23)CC1)c1ccccc1 (stereo not drawn)	570
Cc1cccc(C(=O)NCCCN2CCC(NC(=O)/C=C/c3ccc(Cl)c(Cl)c3)CC2)c1	1700
O=C(Cc1cccc(Cl)c1)Nc1cccc(-c2c[nH]c3nc(Nc4ccccc4)ncc23)c1	680
O=c1ccc2ccc(F)c3c2n1CC3CN1CCC(NCc2cccc(-c3cccs3)c2)CC1 (stereo not drawn)	830
COc1cc(NC(=O)Nc2cc(C)nc3ccccc23)cc(OC)c1	400
O=C(N[C@@H](CC1CCCCC1)C(=O)NCCc1ccc(Cl)c(Cl)c1)c1ccc(O)c(-c2ccc(Cl)c(Cl)c2)c1	160
COc1ccccc1Cn1ccnc1SCC(=O)Nc1cccc(C(F)(F)F)c1	910
FC(F)(F)c1cc(Nc2ncnc3ccc(Br)cc23)ccc1OCc1ccccc1	1080
CS(=O)(=O)CCNCc1cccc(-c2cc3c(Nc4ccc(OCc5ccccc5)cc4)ncnc3cn2)c1	730
CN(CCC(O)c1ccc(Cl)c(Cl)c1)C[C@H]1C[C@@H]1C(=O)c1ccccc1 (stereo partly drawn)	790
N#CC(c1ccc(F)cc1)c1ccc2c(C(F)(F)F)cc(C(F)(F)F)nc2n1 (stereo not drawn)	730
COc1ccc2nccc([C@@H](O)CN3CCC(NC(=O)c4ccc(CN5CCN(c6cccc(C)c6)CC5C)cc4)CC3)c2c1 (stereo partly drawn)	210
Cc1nc2ccc3nc(NC(=O)c4ccno4)sc3c2s1	660
O=C(Nc1ccc(C(F)(F)F)cc1)N[C@H]1CCN(CCCCCNC(=O)[C@@H]2C[C@H]2c2ccc(Cl)c(Cl)c2)C1	1100
CCCc1cc(OC)c(C[C@@H]2c3cc(O)c(Cl)cc3CCN2C)cc1OC	720
O=C(Nc1ccc2c(c1)OCCO2)c1cc(-c2cccnc2)nc2ccc(Cl)cc12	710
CCCCCCN(CCCCCC)CC(O)c1c(OC)ccc2ccccc12 (stereo not drawn)	570
Brc1ccc(Nc2nc(NCC3CCCO3)c3ccccc3n2)cc1 (stereo not drawn)	580
Cc1ccc(C(=O)Nc2ccc(Cl)c(N3CCN(CCc4ccccc4)CC3)c2)cc1	930
COc1cc(NCC(O)CNc2cc(Cl)nc3ccccc23)nc2ccccc12 (stereo not drawn)	420
Cc1cc(C(F)(F)F)cc(-n2ncc(-c3ccc(C(=O)NCCNCc4ccccc4)cc3)c2N)n1	1070

SMILES	IC50 [nM]
COc1ccc2nccc([C@@H](O)CN3CCC(NCCNc4cccc(F)c4)CC3)c2c1	180
CC(=O)Nc1ccc(OCCCCN(Cc2ccccc2C(F)(F)F)c2ccc(C(F)(F)F)c(C#N)c2)c(Cl)c1	550
Clc1ccccc1OCc1ccccn1	990
CN(Cc1ccc(-c2ccc(C(F)(F)F)cc2)cc1)C(=O)Cn1c(CCc2cccc(F)c2F)cc(=O)c2ccc(OCCCN3CCCCC3)cc21	710
O=C(/C=C/c1ccc(C(F)(F)F)cc1)NCCCCCN1CCCN(C(=O)Nc2ccc(Cl)cc2)CC1	870
CN1CCN(Cc2nc(-c3ccc4c(Nc5ccc(Oc6ccccc6)cc5)ccnc4c3)cs2)CC1	310
CCCN=CNc1cc(-c2csc(N=C(N)N)n2)cc([N+](=O)[O-])c1	1740
CN1CCCN(c2ccnc3cc4c(cc23)N(C(=O)c2ccc(Cl)c(Cl)c2)CC4)CC1	870
Cc1[nH]c(C)c(-c2ccc(Oc3ccc(Cl)cc3)cc2)c(=O)c1Cl	790
CCCc1cc(Cc2cnc(N)nc2N)cc(CC)c1OC	820
O=S(=O)(NCCN1CCCC1)c1ccc(-c2ccc(CNCc3ccc(F)cc3)cc2)s1	840
c1ccc2c(c1)CN(Cc1ccsc1)CC1(CCN(Cc3c[nH]c4cnccc34)CC1)O2	1150
O=C(NCc1ccc(F)cc1)Nc1cccc(-c2ccc(-c3nc4ccc(F)cc4[nH]3)cc2)c1	230
Cc1ccccc1C(O)CNc1ccnc(Nc2cccc(C#N)c2)n1 (stereo not drawn)	880
COc1ccc(CN(C)CC(O)COc2ccc(NC(=O)c3cccc4c(=O)c5cccc(OC)c5[nH]c34)cc2)cc1OC (stereo not drawn)	780
COc1cccc(Nc2nc(C)cc(NC3CCN(Cc4ccccc4)CC3)n2)c1	690
Brc1cc(Br)c2c(c1)C(NCCCNc1nc3ncccc3[nH]1)CCN2 (stereo not drawn)	590
O=C(Nc1ccccc1Cl)N(Cc1cc(Cl)cc(Cl)c1)CC(O)COc1ccc(Cl)c(F)c1 (stereo not drawn)	790
O=C(/C=C/c1ccc(Cl)c(Cl)c1)NC1CCC(CN2CCC(c3nc4ccccc4n3CCCO)CC2)CC1 (stereo not drawn)	580
COC(=O)CN(C(=O)/C=C/c1ccc(Cl)c(Cl)c1)C1CCC(CN2CCC(c3c[nH]c4ccccc34)CC2)CC1 (stereo not drawn)	510
Cc1cc2nc(-c3ccc(OCC(=O)NCc4ccc(C(C)(C)C)cc4)cc3)[nH]c2cc1C	1060
COc1ccc2nccc([C@@H](O)CN3CCC(NCc4[nH]c5ccccc5c4F)CC3)c2c1	250
O=C(NC1CCC1)C1CCN(C(c2ccc(Cl)cc2)c2ccc(Cl)cc2)CC1	560
